A short description of one data set: Microsomal stability. It is filed as in vitro ADME, human. The conditions noted are these: after 60 min incubation, NADP, 37 °C. On the procedure:
The human, rat, and mice recombinant microsomes employed were purchased from Tebu–Xenotech. […] Samples (75 μL) were taken from each well at 0, 10, 20, 40, and 60 min and transferred to a plate containing 4 °C 75 μL of acetonitrile and 30 μL of 0.5% formic acid in water were added for improving the chromatographic conditions. The plate was centrifuged ([…], 30 min) and supernatants were taken and analyzed by an ultraperformance liquid chromatograph–tandem mass spectrometer (Xevo-TQD, Waters) by employing a BEH C18 column and an isocratic gradient of 0.1% formic acid in water: 0.1% formic acid acetonitrile (60:40). The metabolic stability of the compounds was calculated from the logarithm of the remaining compounds at each of the time points studied.

The next data set can be described thus: Caco-2 cell permeability. It is filed as in vitro ADME. The settings on record: human; for Papp A→B at 2 h, 10 µM / Papp B→A at 2 h, 10 µM: 37 °C; for efflux ratio at 2 h, 10 µM: ER = (Papp B→A)/(Papp A→B). On the procedure:
The Caco-2 cells were cultured to confluency, trypsinized, and seeded onto a 96-filter transwell insert (Corning) at a density of ∼10,000 cells/well in DMEM cell culture medium supplemented with 10% fetal bovine serum, 2 mM L-glutamine, and 1% penicillin/streptomycin. Confluent Caco-2 cells were subcultured at passages 58–62 and grown in a humidified atmosphere of 5% CO2 at 37 °C. […] The cell monolayers were used for transport studies 21 days post seeding. […] Stock solutions were made in dimethyl sulfoxide (DMSO) and further diluted in HBSS (final DMSO concentration 1%). Each compound and reference compounds (Colchicine, E3S) were all tested at a final concentration of 10 μM. For A → B directional transport, the donor working solution was added to the apical (A) compartment and the transport media as receiver working solution was added to the basolateral (B) compartment. For B → A directional transport, the donor working was added to the basolateral (B) compartment and transport media as receiver working solution was added to the apical (A) compartment. The cells were incubated at 37 °C for 2 h with gentle stirring.
At the end of the incubation, samples were taken from both donor and receiver compartments and transferred into 384-well plates and analyzed by ultraperformance liquid chromatography–tandem mass spectrometry (UPLC–MS/MS). The detection was performed using an ACQUITY UPLC/Xevo TQD System.
(Passage across Caco-2 layers is used to estimate intestinal permeability.)

The target of a further data set is T1, CYP 1A2 (Homo sapiens, UniProt P05177).
T1 sequence (P05177 1-516): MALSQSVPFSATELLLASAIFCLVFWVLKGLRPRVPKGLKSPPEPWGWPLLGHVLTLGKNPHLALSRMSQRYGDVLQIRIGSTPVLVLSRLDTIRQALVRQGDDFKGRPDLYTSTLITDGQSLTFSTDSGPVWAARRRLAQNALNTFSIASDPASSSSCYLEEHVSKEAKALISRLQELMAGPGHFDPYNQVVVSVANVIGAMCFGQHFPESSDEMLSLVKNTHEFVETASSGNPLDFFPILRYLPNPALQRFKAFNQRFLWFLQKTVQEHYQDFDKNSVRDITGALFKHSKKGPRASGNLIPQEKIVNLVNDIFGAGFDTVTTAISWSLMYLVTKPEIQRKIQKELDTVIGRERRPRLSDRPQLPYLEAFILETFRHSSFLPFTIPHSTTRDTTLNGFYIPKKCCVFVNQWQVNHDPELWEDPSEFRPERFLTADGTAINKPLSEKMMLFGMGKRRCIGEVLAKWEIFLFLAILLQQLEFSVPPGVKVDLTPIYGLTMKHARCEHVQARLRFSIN
The experiment in a line: Cytochrome P450 inhibition, fluorescence detection. Format: in vitro ADME. The settings on record: at 10 μM.

A further data set addresses CYP 2C19 (Homo sapiens, UniProt P33261). The experiment in a line: Cytochrome P450 inhibition, fluorescence detection. It is filed as in vitro ADME.
In the next data set the target is CYP 2D6 (Homo sapiens, UniProt P10635). In words: Cytochrome P450 inhibition, fluorescence detection. It is filed as in vitro ADME. The conditions noted are these: at 10 μM.
For a further data set, the target named is CYP 3A4 (Homo sapiens, UniProt P08684). In words: Cytochrome P450 inhibition, fluorescence detection. It is filed as in vitro ADME. The settings on record: at 10 μM; for CYP 3A4 (BFC) inhibition: substrate benzyloxytrifluoromethylcoumarin; for CYP 3A4 (DBF) inhibition: substrate dibenzylfluorescein. Here is the method: The objective of this study was to screen the inhibition potential of the compounds using recombinant human cytochrome P450 enzymes CYP3A4 (BFC and DBF substrates) and probe substrates with fluorescent detection. Incubations were conducted in a 200 μL volume in 96-well microtiter plates (COSTAR 3915). The addition of the mixture buffer-cofactor (KH2PO4 buffer, 1.3 mM NADP, 3.3 mM MgCl2, 0.4 U/mL glucose-6-phosphate dehydrogenase), control supersomes, the Standard inhibitor Ketoconazole (Sigma K1003), and previously diluted compounds to plates was carried out by a liquid handling station (Zephyr Caliper). The plate was then preincubated at 37 °C for 5 min in a 100 μL volume, and reaction was initiated by the addition of a prewarmed enzyme/substrate (E/S) mix. The E/S mix contained buffer (KH2PO4), enzyme (CYP), substrate 7-benzyloxytrifluoromethyl coumarin (7-BFC), and dibenzylfluorescein (DBF) in a reaction volume of 200 μL. Reactions were terminated after various times depending on the substrate by addition of STOP solution (ACN/TrisHCl 0.5 M 80:20 (BFC) or 2 N NaOH for CYP3A4 (DBF). Fluorescence per well was measured using a fluorescence plate reader (Tecan M1000 pro) and percentage of inhibition was calculated.

A further data set has as its target T2, hERG potassium channel (Homo sapiens, UniProt Q12809).
T2 construct: expressed in transfected cells; host or cells: CHO
In words: hERG inhibition assay (Fluxor potassium ion channel kit, transfected CHO cells). The conditions noted are these: at 10 μM. It is filed as cell-based. On the procedure:
The assay was carried out at a CHO cell line transfected with the hERG potassium channel. 72 h before the assay, 2500 cells were seeded on a 384-well black plate (Greiner 781091). The cell line was maintained at 37 °C in a 5% CO2 atmosphere for 24 h and at 30 °C in a 5% CO2 atmosphere for 48 h plus. hERG activity was measured by using the FluxorTM Potassium Ion Chanel Assay Kit (Thermo Fisher F10016). Medium was replaced for 20 μL of loading buffer and the cells were incubated for 60 min at RT, protected from direct light. After incubation, the loading buffer was replaced for the assay buffer and the compounds were incubated for 30 min at RT. 5 μL of a stimulus buffer was added to each well and the fluorescence was read (λex = 490 nm, λem = 525 nm) using an imaging plate reader system (FDSS7000EX, Hamamatsu) every second after the establishment of a baseline line.
Background: The hERG channel carries a current that helps repolarise heart muscle cells.

[1] abbreviates: IC50 calculated for >50% inhibition at 10 μM.

Each structure is given as a SMILES string. Read-outs that look alike come from different tables or passages of the source.

CYP 3A4, sequence (P08684 whole entry): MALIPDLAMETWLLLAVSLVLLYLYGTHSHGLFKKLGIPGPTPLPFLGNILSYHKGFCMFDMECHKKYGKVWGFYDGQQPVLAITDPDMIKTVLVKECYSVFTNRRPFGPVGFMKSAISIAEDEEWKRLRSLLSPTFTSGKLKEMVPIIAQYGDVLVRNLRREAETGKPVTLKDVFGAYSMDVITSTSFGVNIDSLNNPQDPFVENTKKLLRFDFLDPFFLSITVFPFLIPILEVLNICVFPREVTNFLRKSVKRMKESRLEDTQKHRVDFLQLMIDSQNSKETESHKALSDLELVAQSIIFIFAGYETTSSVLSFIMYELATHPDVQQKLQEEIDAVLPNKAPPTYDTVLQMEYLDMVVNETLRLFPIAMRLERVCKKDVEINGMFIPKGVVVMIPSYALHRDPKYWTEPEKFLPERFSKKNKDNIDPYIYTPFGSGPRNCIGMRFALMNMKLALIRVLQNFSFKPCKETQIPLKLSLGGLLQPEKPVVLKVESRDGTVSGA
CYP 2C19, sequence (P33261 whole entry): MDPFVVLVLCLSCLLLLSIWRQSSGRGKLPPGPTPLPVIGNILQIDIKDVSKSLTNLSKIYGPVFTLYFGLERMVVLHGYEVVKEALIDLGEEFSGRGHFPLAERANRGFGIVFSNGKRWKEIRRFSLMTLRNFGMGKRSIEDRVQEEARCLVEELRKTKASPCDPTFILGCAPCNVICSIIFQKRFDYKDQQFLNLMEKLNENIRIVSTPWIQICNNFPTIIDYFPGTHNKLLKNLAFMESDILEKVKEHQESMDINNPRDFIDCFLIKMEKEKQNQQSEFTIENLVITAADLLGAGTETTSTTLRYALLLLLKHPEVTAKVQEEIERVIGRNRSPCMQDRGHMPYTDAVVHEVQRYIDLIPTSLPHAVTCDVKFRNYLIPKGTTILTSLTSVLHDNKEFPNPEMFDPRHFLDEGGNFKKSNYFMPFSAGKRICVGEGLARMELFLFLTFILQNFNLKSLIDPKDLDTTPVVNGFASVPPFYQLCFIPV
T2 sequence (Q12809 whole entry): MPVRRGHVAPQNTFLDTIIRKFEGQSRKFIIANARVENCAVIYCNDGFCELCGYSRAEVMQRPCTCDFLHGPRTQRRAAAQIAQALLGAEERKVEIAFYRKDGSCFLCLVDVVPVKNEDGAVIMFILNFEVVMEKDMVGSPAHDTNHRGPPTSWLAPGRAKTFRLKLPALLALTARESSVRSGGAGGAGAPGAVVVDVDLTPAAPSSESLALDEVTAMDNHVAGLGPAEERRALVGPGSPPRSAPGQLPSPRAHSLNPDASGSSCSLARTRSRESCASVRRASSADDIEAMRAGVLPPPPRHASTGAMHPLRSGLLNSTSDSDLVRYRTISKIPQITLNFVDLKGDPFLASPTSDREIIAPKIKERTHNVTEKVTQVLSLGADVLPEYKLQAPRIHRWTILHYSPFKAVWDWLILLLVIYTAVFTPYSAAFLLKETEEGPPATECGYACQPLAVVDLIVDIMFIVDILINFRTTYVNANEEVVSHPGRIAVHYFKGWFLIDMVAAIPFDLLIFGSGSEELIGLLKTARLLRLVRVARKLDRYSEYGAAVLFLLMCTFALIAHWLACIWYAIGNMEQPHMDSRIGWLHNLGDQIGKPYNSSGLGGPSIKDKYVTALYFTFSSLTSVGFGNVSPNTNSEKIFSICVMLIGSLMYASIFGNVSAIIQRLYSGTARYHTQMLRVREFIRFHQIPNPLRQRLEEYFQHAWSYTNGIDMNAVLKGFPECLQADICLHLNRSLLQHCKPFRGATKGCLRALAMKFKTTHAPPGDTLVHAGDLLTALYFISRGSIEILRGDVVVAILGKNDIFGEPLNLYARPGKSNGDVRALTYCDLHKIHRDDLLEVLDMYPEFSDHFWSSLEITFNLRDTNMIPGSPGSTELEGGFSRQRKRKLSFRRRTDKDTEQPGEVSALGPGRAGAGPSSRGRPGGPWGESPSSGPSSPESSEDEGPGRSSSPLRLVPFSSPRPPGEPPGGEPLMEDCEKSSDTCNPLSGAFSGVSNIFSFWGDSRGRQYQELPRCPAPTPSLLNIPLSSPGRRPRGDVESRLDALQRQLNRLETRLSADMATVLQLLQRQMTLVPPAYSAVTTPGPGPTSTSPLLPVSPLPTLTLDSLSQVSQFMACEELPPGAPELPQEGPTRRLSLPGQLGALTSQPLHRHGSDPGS
CYP 2D6, sequence (P10635 whole entry): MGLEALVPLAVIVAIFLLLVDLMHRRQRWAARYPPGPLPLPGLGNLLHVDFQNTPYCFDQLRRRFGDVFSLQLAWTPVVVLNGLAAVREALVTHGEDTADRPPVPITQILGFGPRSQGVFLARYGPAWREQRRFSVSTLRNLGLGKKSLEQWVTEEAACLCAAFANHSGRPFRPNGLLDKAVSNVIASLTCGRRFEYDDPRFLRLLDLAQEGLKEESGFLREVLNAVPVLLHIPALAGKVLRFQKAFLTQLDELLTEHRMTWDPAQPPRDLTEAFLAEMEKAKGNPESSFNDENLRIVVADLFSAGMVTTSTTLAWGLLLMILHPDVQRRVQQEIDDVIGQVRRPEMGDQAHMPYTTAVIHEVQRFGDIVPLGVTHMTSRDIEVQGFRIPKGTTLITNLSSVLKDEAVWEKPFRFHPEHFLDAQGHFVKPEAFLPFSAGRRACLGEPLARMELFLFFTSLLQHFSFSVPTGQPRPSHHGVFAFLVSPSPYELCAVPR

On to `CC12CC3CC(NC(=O)N[C@H]4CC[C@H](Oc5ccc(C(=O)O)cc5)CC4)(CC(C1)c1ccccc13)C2` [Compound 20, 4-[((1r,4r)-4-(3-(9-Methyl-5,6,8,9,10,11-Hexahydro-7H-5,9:7,11-dimethanobenzo[9]annulen-7-yl)ureido)cyclohexyl)oxy]benzoic Acid], for which the “microsomal stability, percentage of remaining compound (human)” value in “Microsomal stability” is reported as 70%. Besides, in “Caco-2 cell permeability”, the Papp A→B at 2 h, 10 µM was 1 ×10⁻⁶ cm/s; the basolateral-to-apical permeability (Papp B→A) at 2 h, 10 µM was determined as 12.4 ×10⁻⁶ cm/s; the efflux ratio at 2 h, 10 µM was 12.4. Also, the “CYP 1A2 inhibition” value on CYP 1A2 is given as 1 ± 2%. On CYP 2C19, the 50% inhibitory concentration (IC50) was about 2000 nM and the “fold more potency inhibiting the sEH than CYP2C19” value is reported as 2000 fold. Moreover, the concentration for half-maximal inhibition (IC50) at CYP 2C19 (setting [1]) was 1900 nM. Further, the “CYP 2D6 inhibition” value on CYP 2D6 was determined as 1 ± 1%. For the same compound, at CYP 3A4, the “CYP 3A4 (BFC) inhibition” value is 2 ± 2% and the “CYP 3A4 (DBF) inhibition” value is 14 ± 1%. The same compound returned a hERG channel inhibition on hERG potassium channel of 4%.
Consider `O=C(NC12CC3CC(Cl)(CC(C1)c1ccccc13)C2)N[C@H]1CC[C@H](Oc2ccc(C(=O)O)cc2)CC1` [Compound 22, 4-[((1r,4r)-4-(3-(9-Chloro-5,6,8,9,10,11-hexahydro-7H-5,9:7,11-dimethanobenzo[9]annulen-7-yl)ureido)cyclohexyl)oxy]benzoic Acid], for which the “microsomal stability, percentage of remaining compound (human)” value in “Microsomal stability” was 89%. In the data set “Caco-2 cell permeability”, this compound yielded a Papp A→B at 2 h, 10 µM of 2.15 ×10⁻⁶ cm/s and a Papp B→A at 2 h, 10 µM of 4.66 ×10⁻⁶ cm/s. In addition, the “CYP 1A2 inhibition” value on CYP 1A2 came to 14 ± 4%. Also, on CYP 2C19, the IC50 is about 2000 nM. Moreover, the half-maximal inhibitory concentration (IC50) on CYP 2C19 (setting [1]) is 2200 nM. The “CYP 2D6 inhibition” value on CYP 2D6 was found to be 11 ± 3%. Moreover, on CYP 3A4, the “CYP 3A4 (BFC) inhibition” value came to 1 ± 2% and the “CYP 3A4 (DBF) inhibition” value is 52 ± 4%. The same compound registered a hERG channel inhibition at hERG potassium channel of 44%.
Turning to `O=C(NC12CC3CC(F)(CC(C1)c1ccccc13)C2)N[C@H]1CC[C@H](Oc2ccc(C(=O)O)cc2)CC1` [Compound 23, 4-[((1r,4r)-4-(3-(9-Fluoro-5,6,8,9,10,11-hexahydro-7H-5,9:7,11-dimethanobenzo[9]annulen-7-yl)ureido)cyclohexyl)oxy]benzoic Acid], in “Microsomal stability”, the “microsomal stability, percentage of remaining compound (human)” value stood at 77%. For the same compound, in the data set “Caco-2 cell permeability”, the Papp A→B at 2 h, 10 µM is 0.09 ×10⁻⁶ cm/s; the Papp B→A at 2 h, 10 µM was 21.9 ×10⁻⁶ cm/s; the efflux ratio at 2 h, 10 µM came out at 244.

In general, Papp A→B refers to the apparent permeability from the apical to the basolateral side of a cell layer. High values mean ready permeation, low ones poor permeation. One may read the Papp B→A as how fast a substance crosses the layer from the basolateral side. What is called efflux ratio is a quotient of directional permeabilities that is used to spot active efflux. For orientation: IC50 means the concentration that gives 50% inhibition.
